Measured values reported in the supplement of paper PMC10949913.

How the values were obtained:
Test in all cases: area under concentration-response curve (viability) (AUC (a.u.)); higher = less active
Conditions in all cases: 48 h
CU-ACC2 = test system: CU-ACC2
How it was run: (§1)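 For each of three adrenocortical carcinoma cell lines, 500–1,000 cells/well were placed in 5 µL medium in 1,536-well plates. A 23 nL volume of every library compound was added at 11 concentrations. Following 48 h, a 15-minute room-temperature CellTiter-Glo step preceded luminescence reading, with signals normalised per plate to vehicle and empty-well controls. AC50 and area under the curve were derived by curve fitting, retaining only inhibitory or non-responding curve classes.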

CU-ACC1 = test system: CU-ACC1
How it was run: as §1

NCI-H295R = test system: NCI-H295R
How it was run: as §1

Row | Compound | area under concentration-response curve (CU-ACC2) | area under concentration-response curve (CU-ACC1) | area under concentration-response curve (NCI-H295R)
1 | NC(=O)c1ccc(-c2nc(-c3ccc4c(c3)OCCO4)c(-c3ccccn3)[nH]2)cc1 | 366 |  | 
2 | OC1=CC=C2\C3=C(CNCC3)/C(=O)OC2=C1C4OCCCO4 | 623 |  | 
3 | O=C(O)c1ccc(-n2nc(-c3ccccc3O)nc2-c2ccccc2O)cc1 | 590 |  | 
4 | COc1ccccc1C(=O)Nc1cc2c(cc1N1CCNC[C@H]1C)n(C)c(=O)n2C |  | 479 | 550
5 | CC1=CC(=CC=C1)OC/2=C/NC(=O)/N=C2 |  | 539 | 566
6 | O=C(Nc1cccc(C(F)(F)F)c1)c1cccc2cc(Oc3cc(CO)ncn3)ccc12 |  | 516 | 579
7 | c1ccc2c(Oc3nc(Nc4ccc(N5CCOCC5)cc4)c4ncn(C5CCCCC5)c4n3)cccc2c1 |  | 481 | 535
8 | CCOC(=O)Nc1ccc(NCc2ccc(F)cc2)cc1N |  | 543 | 578
9 | CO[C@@H](C(=O)N1Cc2[nH]nc(NC(=O)c3ccc(N4CCN(C)CC4)cc3)c2C1)c1ccccc1 |  | 539 | 549
10 | CC(C)c1ccccc1Cc1cc(C(=O)Nc2ccc([S+](=O)([O-])c3ccccc3C(C)(C)C)cc2)c(O)c(O)c1O |  | 293 | 205
11 | Cc1nc(N)sc1-c1ccnc(Nc2ccc(N3CCOCC3)cc2)n1 |  | 400 | 414
12 | O=C(NNc1ccccc1)c1ccncc1 |  | 483 | 527
13 | CC1(C)O[C@@H]2C[C@H]3[C@@H]4CCC/5=C/C(=O)/C=C\[C@]5(C)[C@H]4[C@@H](O)C[C@]3(C)[C@@]2(O1)C(=O)CO |  | 469 | 524
14 | COC(=O)C[C@](O)(CCCC(C)(C)O)C(=O)O[C@@H]1C(OC)=CC23CCCN2CCc2cc4c(cc2[C@H]13)OCO4 (stereo partly specified) |  | 149 | 252
15 | Cc1ccc(Nc2cc(N[C@@H]3CCCC[C@@H]3N)nnc2C(N)=O)nc1C |  | 516 | 568
16 | O=C(CCNC(=O)c1ccc(OC(F)(F)F)cc1)N[C@@H]1CCCc2ccccc21 |  | 149 | 81
17 | C[N]1N=CC=C1C/2=C(\C)N(C(=O)C(=C2)/C(=O)NCC3=NC=C(C=C3)[S+](C)([O-])=O)C4=CC=CC(=C4)C(F)(F)F |  | 380 | 277
18 | Cc1ccc(-c2ccc3c(ccc4sc5c(c43)NC[C@@H](C)NC5=O)n2)cn1 |  | 473 | 504
19 | Cn1cc(-c2ccc3c(c2)CCN3C(=O)Cc2cccc(C(F)(F)F)c2)c2c(N)ncnc21 |  | 523 | 577

Row | Compound | area under concentration-response curve (CU-ACC2) | area under concentration-response curve (CU-ACC1) | area under concentration-response curve (NCI-H295R)
20 | CC(C)(O)[C@H]1CC[C@@](C)([C@H]2[C@@H](O)C[C@@]3(C)[C@@H]4C[C@H](O[C@@H]5O[C@H](CO)[C@@H](O)[C@H](O)[C@H]5O)[C@H]5C(C)(C)[C@@H](O[C@@H]6OC[C@@H](O)[C@H](O)[C@H]6O)CC[C@@]56C[C@@]46CC[C@]23C)O1 |  | 535 | 547
21 | Cc1ccccc1C(=O)Nc1ccc(C(=O)N2CCCC(O)c3cc(Cl)ccc32)c(C)c1 (stereo unspecified) |  | 484 | 536
22 | COc1ccc(C2(C#N)CCC(C(=O)O)CC2)cc1OC1CCCC1 (stereo unspecified) |  | 548 | 606
23 | CCCCCC[C@H]1C(=O)O[C@H](C)[C@H](NC(=O)c2cccc(NC=O)c2O)C(=O)O[C@@H](C)[C@@H]1OC(=O)CC(C)C |  | 491 | 467
24 | O=C(Nc1cnccc1Cl)N1CCN(Cc2ccc3c(c2)OC(F)(F)O3)CC1 |  | 330 | 414
25 | c1cnc2cc3c(cc2n1)C1CNCC3C1 |  | 536 | 563
26 | Cc1c(F)ccc(C(=O)Nc2cc([N+](=O)[O-])ccc2N2CCN(C)CC2)c1Cl |  | 457 | 434
27 | CN1C(=O)N[C@H](Cc2c[nH]c3c(Cl)cccc23)C1=O |  | 425 | 445
28 | COC1=C(OC)C=C2C(=CC=NC2=C1)OC3=CC=C(NC(=O)\C4=C\N(C(C)C)C(=O)N(C4=O)C5=CC=C(F)C=C5)C=C3F |  | 489 | 460
29 | COc1cc(N2CCN(C)CC2)ccc1Nc1ncc2c(n1)N(C)c1ccccc1C(=O)N2C |  | 389 | 459
30 | Cc1cc(Oc2ccc3nc(COc4ccc(CC5SC(=O)NC5=O)cc4)n(C)c3c2)cc(C)c1N (stereo unspecified) |  | 512 | 556
31 | OC[C@H]1O[C@H](C[C@@H]1O)[N]2C=NC3=C2\N=C/NC[C@H]3O |  | 485 | 509
32 | C[C@H]1C[C@H]2[C@@H]3CC[C@](O)(C(=O)CO)[C@@]3(C)C[C@H](O)[C@@H]2[C@@]\4(C)/C=C\C(=O)\C=C14 |  | 520 | 553
33 | C/N=c1\ncc2cc(-c3cc(N/C(O)=N/CCC(C)(C)C)c(F)cc3C)c(C)nc2[nH]1 |  | 454 | 474
34 | O=C/1NC(=O)C(=C1C2=CN=C3C=CC=C[N]23)/C4=C[N]5CCN(CC6=C5C4=CC=C6)C(=O)N7CCOCC7 |  | 514 | 526
35 | C[N]1N=CN=C1[C@@H]2[C@H](NC3=CC(=CC4=C3\C2=N/NC4=O)F)C5=CC=C(F)C=C5 |  | 405 | 415
36 | C[C@@H](Nc1ncnc2[nH]c(-c3ccc(O)cc3)cc12)c1ccccc1 |  | 300 | 328
37 | CN1CCN(CC1)C2=NC3=C(C=CC=C3)C(=N2)C/4=C(/C(=O)NC4=O)C5=C[NH]C6=C5C=CC=C6 |  | 498 | 523
38 | CCC(C)N(C)C(=O)c1cc2ccccc2c(-c2ccccc2Cl)n1 (stereo unspecified) |  | 492 | 337

Row | Compound | area under concentration-response curve (CU-ACC2) | area under concentration-response curve (CU-ACC1) | area under concentration-response curve (NCI-H295R)
39 | NC(=O)c1cc(F)cc2c1C(=O)N(C1CCN(C3CCC(F)(F)CC3)CC1)C2 |  | 541 | 568
40 | CC(C)(C)C(=O)N1\N=C/C[C@H]1C2=CC=CC=C2 |  | 549 | 568
41 | CN1C(=O)C[C@H](C(=O)N[C@@H](Cc2cnc[nH]2)C(=O)N2CCC[C@H]2C(N)=O)NC1=O |  | 537 | 589
42 | CN(C)CCN1C(=O)c2cccc3cc(NC(N)=O)cc(c23)C1=O |  | 521 | 542
43 | CC1(C)[C@@H](O)CC[C@@]2(C)[C@H]1CC[C@]3(C)[C@@H]2C(=O)\C=C/4[C@@H]5C[C@](C)(CC[C@]5(C)CC[C@@]34C)C(O)=O |  | 512 | 545
44 | C=C1C[C@@]2(O)O[C@@]3(C[C@H]2C(C)C)[C@@H](C)CC[C@@H]13 |  | 487 | 541
45 | c1ccc(-c2oc3ncnc(NC[C@@H]4CCCO4)c3c2-c2ccccc2)cc1 |  | 517 | 572
46 | COc1cc2ncnc(Oc3cccc(NC(=O)Nc4cc(C(C)(C)C(F)(F)F)on4)c3)c2cc1OC |  | 446 | 467
47 | O=C\1N(N\C=C1[N]2C=CN=N2)C3=NC=NC(=C3)N4CCOCC4 |  | 492 | 521
48 | N[C@H](CSC(c1ccccc1)(c1ccccc1)c1ccccc1)C(=O)O |  | 529 | 564
49 | O=C1OC(COc2ccccc2[N+](=O)[O-])CC1Cc1ccccc1 (stereo unspecified) |  | 412 | 521
50 | COc1ccc2nc3[nH]nc(C)c3c(NCCOCCO)c2c1 |  | 545 | 574
51 | NC(=O)c1cnc2[nH]ccc2c1NC1C2CC3C[C@H]1CC(O)(C3)C2 (stereo partly specified) |  | 519 | 547
52 | Cn1cnc([N+](=O)[O-])c1Sc1ncnc2nc[nH]c12 |  | 427 | 472
53 | CCC[S+](=O)([O-])Nc1ccc(F)c(C(=O)c2c[nH]c3ncc(Cl)cc23)c1F |  | 475 | 493
54 | Cc1ccccc1C(C(=O)NC1CCCCC1)N(C(=O)CNc1ccc(C#N)cc1)c1cccc(F)c1 (stereo unspecified) |  | 485 | 507
55 | Cn1cc(-c2cnn3c(N)c(Br)c(C4CCCNC4)nc23)cn1 (stereo unspecified) |  | 516 | 557
56 | COC1=C(OC)C=C2C(=C1)C(=O)N(CCCN3CCOCC3)\C4=C2\C(=O)C5=C4C=C6OCOC6=C5 |  | 400 | 463
57 | OC(=O)/C1=C/CCN(CCOC(C2=CC=C(C=C2)C(F)(F)F)C3=CC=C(C=C3)C(F)(F)F)C1 |  | 548 | 569
